Assay [1] can be described thus: Antagonist activity at human dopamine D2 receptor expressed in CHOp cells assessed as inhibition of quinpirol-induced mitogenesis incubated for 24 hrs by [3H]thymidine incorporation assay.
The nature of assay [2]: Agonist activity at human dopamine D3 receptor expressed in CHOp cells assessed as stimulation of mitogenesis incubated for 24 hrs by [3H]thymidine incorporation assay. A general note: Dividing cells build labelled thymidine or BrdU into new DNA.
The nature of assay [3]: Antagonist activity at human dopamine D3 receptor expressed in CHOp cells assessed as inhibition of quinpirol-induced mitogenesis incubated for 24 hrs by [3H]thymidine incorporation assay.

Structures are written as SMILES.

For orientation: IC50 means the point on the concentration scale where inhibition reaches its midpoint. Turning to `CCCCCCN(CCc1ccccc1)CCc1cccc(O)c1`, the IC50 in assay [1] was found to be 1250 nM. What is called EC50 is the concentration at which the effect is half-maximal. `Oc1cccc(CCN(CCc2ccccc2)CC2CC2)c1`: in assay [2], the concentration for a half-maximal effect (EC50) amounted to 32 nM. The same measure, in the same setting: for `CCCN(CCc1ccccc1)CCc1cccc(O)c1` the value was 5.3 nM. As for `Oc1cccc(CCN(CCc2ccccc2)CC2CCC2)c1`, in assay [2], the EC50 was above 10000 nM. For the same compound, the figures for the half-inhibitory concentration (IC50) in assay [3] and in assay [1] were 953 nM and 1650 nM, respectively.

(Values after BindingDB's records for doi:10.1021/jm301258w (University of Innsbruck, 2012).)
